# Results taken from US9156811B2 (priority 2008, dated 2015).
# Where a name gives a salt, the structure may show the parent alone.
# System: Trypanosome (T. brucei brucei)
# Experiment: In-vitro antitrypanosomal efficacy assay (cell growth, resazurin)
# Type: cell-based
# Settings: not given
row,Compound,ED50 (μM) T. brucei [µM]
1,"Cc1nn(C)c(C)c1N(C(F)F)[S+](=O)([O-])c1c(Cl)cc(CCCC2CCNCC2)cc1Cl [DDD100096, 2,6-Dichloro-N-(difluoromethyl)-4-(3-(piperidin-4-yl)propyl)-N-(1,3,5-trimethyl-4H-pyrazol-4-yl)benzenesulfonamide hydrochloride salt]",0.003

# Same assay, conditions: T. brucei brucei, blood stream form, variant 221
row,Compound,ED50 (μM) T. brucei [µM]
1,"Cc1nn(C)c(C)c1N(C(F)F)[S+](=O)([O-])c1c(Cl)cc(Br)cc1Cl [DDD100805, 4-bromo-2,6-dichloro-N-(difluoromethyl)-N-(1,3,5-trimethyl-1H-pyrazol-4-yl)benzenesulfonamide]",>1
2,Cc1c(N[S+](=O)([O-])c2ccc(-c3cc(CN(C)C)ccc3Cl)cc2)c(CC(C)C)nn1C [DDD99826],0.104
3,Cc1ccc(-c2ccc([S+](=O)([O-])Nc3c(CC(C)C)nn(C)c3C)cc2)cc1CN(C)C [DDD99824],0.014
4,Cc1c(N[S+](=O)([O-])c2ccc(-c3ccc(OC(F)(F)F)c(CN(C)C)c3)cc2)c(CC(C)C)nn1C [DDD100140],>1
5,Cc1nn(C)c(C)c1N(CC(F)F)[S+](=O)([O-])c1c(Cl)cc(CCCC2CCN(C)CC2)cc1Cl [DDD100160],0.013
6,Cc1c(N[S+](=O)([O-])c2ccc(-c3cccc(C(C)(C)N)c3)cc2)c(CC(C)C)nn1C [DDD100870],0.013
7,Cc1nn(C)c(C)c1N(CC(F)F)[S+](=O)([O-])c1c(Cl)cc(CCCN2CCCN(C)CC2)cc1Cl [DDD100802],0.004
8,Cc1nn(C)c(C)c1N(C(F)F)[S+](=O)([O-])c1c(Cl)cc(CCCCCCn2ccnc2C)cc1Cl [DDD100795],0.005
9,Cc1nn(C)c(C)c1N(C)[S+](=O)([O-])c1c(Cl)cc(CCCCCCn2ccnc2)cc1Cl [DDD99833],0.018
10,CCN(c1c(C)nn(C)c1C)[S+](=O)([O-])c1c(Cl)cc(CCCC2CCN(C)CC2)cc1Cl [DDD100088],0.003
11,Cc1nn(C)c(C)c1N(C(F)F)[S+](=O)([O-])c1c(Cl)cc(CCCN2CCCN(C)CC2)cc1Cl [DDD100164],0.001
12,Cc1nn(C)c(C)c1N(C)[S+](=O)([O-])c1ccc(CCCCCCCn2ccnc2)cc1 [DDD99838],>1

# Same assay, conditions: T. brucei cell growth
row,Compound,ED50 (μM) T. brucei [µM]
1,"Cc1nn(C)cc1N[S+](=O)([O-])c1c(Cl)cc(-c2ccnc(N3CCNCC3)c2)cc1Cl [DDD86475, 2,6-Dichloro-N-(1,3-dimethyl-1H-pyrazol-4-yl)-4-(2-piperazin-1-yl-pyridin-4-yl)-benzenesulfonamide]",0.003
2,"Cc1nn(C)c(C)c1N[S+](=O)([O-])c1ccc(NCCN2CCN(C)CC2)nc1 [DDD85602, 6-[2-(4-Methyl-piperazin-1-yl)-ethylamino]-pyridine-3-sulfonic acid (1,3,5-trimethyl-1 H-pyrazol-4-yl)-amide]",0.63
3,C=CCN(c1c(C)nn(C)c1C)[S+](=O)([O-])c1c(Cl)cc(Br)cc1Cl [DDD85638],>1
4,"Cc1nn(C)c(C)c1N[S+](=O)([O-])c1ccc(-c2ccccc2CN2CCN(C)CC2)cc1 [DDD87764, 2′-(4-Methyl-piperazin-1-ylmethyl)-biphenyl-4-sulfonic acid (1,3,5-trimethyl-1H-pyrazol-4-yl)-amide]",>1
5,"Cc1nn(C)c(CC(C)C)c1N[S+](=O)([O-])c1c(Cl)cc(-c2ccnc(N3CCNCC3)c2)cc1Cl [DDD86467, 2,6-Dichloro-N-(5-isobutyl-1,3-dimethyl-1H-pyrazol-4-yl)-4-(2-piperazin-1-yl-pyridin-4-yl)-benzenesulfonamide]",0.003
6,"Cc1nn(C)c(C)c1N[S+](=O)([O-])c1ccc(-c2cccc(CN3CCNC(c4ccccc4)C3)c2)cc1 (stereo not drawn) [DDD87754, 3′-(3-Phenyl-piperazin-1-ylmethyl)-biphenyl-4-sulfonic acid (1,3,5-trimethyl-1H-pyrazol-4-yl)-amide]",1.6
7,"Cc1nn(C)c(C)c1N[S+](=O)([O-])c1ccc(-c2cccc(CN3CCOCC3)c2)cc1 [DDD86314, 3′-Morpholin-4-ylmethyl-biphenyl-4-sulfonic acid (1,3,5-trimethyl-1H-pyrazol-4-yl)-amide]",>1
8,"Cc1nn(C)c(C)c1N[S+](=O)([O-])c1c(Cl)cc(-c2ccnc(NCCN(C)C)c2)cc1Cl [DDD86309, 2,6-Dichloro-4-[2-(2-dimethylamino-ethylamino)-pyridin-4-yl]-N-(1,3,5-trimethyl-1H-pyrazol-4-yl)-benzenesulfonamide]",>1
9,"Cc1nn(C)c(C)c1N[S+](=O)([O-])c1c(Cl)cc(-c2ccnc(N3CCN(C)CC3)c2)cc1Cl [DDD86211, 2,6-Dichloro-4-[2-(4-methyl-piperazin-1-yl)-pyridin-4-yl]-N-(1,3,5-trimethyl-1H-pyrazol-4-yl)-benzenesulfonamide]",0.19
10,Cc1nn(C)c(C)c1N(CC(F)(F)F)[S+](=O)([O-])c1ccc(-c2cccc(CN3CCN(C)CC3)c2)cc1 [DDD90057],0.73
11,"Cc1nn(C)c(C)c1N[S+](=O)([O-])c1c(Cl)cc(-c2ccnc(Cl)c2)cc1Cl [DDD86209, 2,6-Dichloro-4-(2-chloro-pyridin-4-yl)-N-(1,3,5-trimethyl-1H-pyrazol-4-yl)-benzenesulfonamide]",>1
12,Cc1nn(C)c(C)c1N[S+](=O)([O-])c1c(Cl)cc(CCCC2CCNCC2)cc1Cl [DDD99759],0.003
13,Cc1nn(C)c(C)c1N[S+](=O)([O-])c1ccc(CCCN2CCNCC2)cc1 [DDD88580],1.13
14,"Cc1nn(C)c(C)c1N[S+](=O)([O-])c1ccc(CCCN2CCN(C)CC2)cc1 [DDD88191, 4-[3-(4-Methyl-piperazin-1-yl)-propyl]-N-(1,3,5-trimethyl-1H-pyrazol-4-yl)-benzenesulfonamide]",0.67
15,Cc1nn(C)c(C)c1N[S+](=O)([O-])c1c(Cl)cccc1Cl [DDD71239],23.2
16,"Cc1nn(C)c(C)c1N[S+](=O)([O-])c1ccc(NCCC2CCN(C)CC2)nc1 [DDD88000, 6-[2-(1-Methyl-piperidin-4-yl)-ethylamino]-pyridine-3-sulfonic acid (1,3,5-trimethyl-1H-pyrazol-4-yl)-amide]",0.77
17,COc1cc(NC(C)=O)ccc1[S+](=O)([O-])Nc1c(C)nn(C)c1C [DDD71590],>1
18,Cc1nn(C)c(C)c1N(C)[S+](=O)([O-])c1c(Cl)cc(CCCC2CCN(C)CC2)cc1Cl [DDD90146],0.002
19,CCN(CC)Cc1ccc(-c2cc(Cl)c([S+](=O)([O-])Nc3c(C)nn(C)c3C)c(Cl)c2)cc1 [DDD85639],>1

row,Compound,ED50 (μM) T. brucei [µM]
1,Cc1nn(C)c(C)c1N(CC(F)(F)F)[S+](=O)([O-])c1ccc(-c2ccnc(N3CCNCC3)c2)cc1 [DDD88645],0.021
2,"Cc1nn(C)c(C)c1N[S+](=O)([O-])c1ccc(-c2cccc(CN3CCNCC3)c2)cc1 [DDD86317, 3′-piperazin-1-ylmethyl-biphenyl-4-sulfonic acid (1,3,5-trimethyl-1H-pyrazol-4-yl)-amide]",0.02
3,Cc1nn(C)c(C)c1N[S+](=O)([O-])c1c(Cl)cc(-c2ccc(N3CCNCC3)nc2)cc1Cl [DDD85645],0.23
4,Cc1c(N[S+](=O)([O-])c2ccc(-c3cccc(CN(C)C)c3F)cc2)c(CC(C)C)nn1C [DDD99816],0.031
5,CCc1ccc([S+](=O)([O-])Nc2c(C)nn(C)c2C)cc1 [DDD71231],>1
6,Cc1nn(C)c(C)c1N[S+](=O)([O-])c1ccc(CCCOC2CCN(C)CC2)cc1 [DDD99820],0.020
7,CNCc1cccc(-c2ccc([S+](=O)([O-])Nc3c(CC(C)C)nn(C)c3C)cc2)c1 [DDD99748],0.036
8,Cc1nn(C)c(C)c1N[S+](=O)([O-])c1ccc(-c2ccnc(N3CCNC(C)C3)c2)cc1 (stereo not drawn) [DDD87748],0.001
9,Cc1nn(C)c(C)c1N[S+](=O)([O-])c1ccc(-c2ccnc(N3CCNC(C(C)C)C3)c2)cc1 (stereo not drawn) [DDD88549],0.11
10,"Cc1nn(C)c(C)c1N(C)[S+](=O)([O-])c1c(Cl)cc(-c2ccnc(N3CCNCC3)c2)cc1Cl [DDD88193, 2,6-Dichloro-N-methyl-4-(2-piperazin-1-yl-pyridin-4-yl)-N-(1,3,5-trimethyl-1H-pyrazol-4-yl)-benzenesulfonamide]",0.005
11,"Cc1nn(C)c(C)c1N[S+](=O)([O-])c1ccc(-c2ccnc(N3CCNCC3)c2)cc1 [DDD86213, 4-(2-piperazin-1-yl-pyridin-4-yl)-N-(1,3,6-trimethyl-1H-pyrazol-4-yl)-benzenesulfonamide]",0.003
12,Cc1nn(C)c(C)c1N[S+](=O)([O-])c1ccc(CNC(=O)c2ccc(Cl)cc2)s1 [DDD73224],>1
13,"Cc1noc(C)c1N[S+](=O)([O-])c1c(Cl)cc(-c2ccnc(N3CCNCC3)c2)cc1Cl [DDD86468, 2,6-Dichloro-N-(3,5-dimethyl-isoxazol-4-yl)-4-(2-piperazin-1-yl-pyridin-4-yl)-benzenesulfonamide]",0.20
14,Cc1nn(C)c(C)c1N[S+](=O)([O-])c1c(F)cc(Br)cc1F [DDD88317],>10
15,CC#CCN(c1c(C)nn(C)c1C)[S+](=O)([O-])c1c(Cl)cc(Br)cc1Cl [DDD85631],>1
16,Cc1nn(C)c(C)c1N[S+](=O)([O-])c1ccc(C#N)cc1Cl [DDD73228],>1
17,Cc1nn(C)c(C)c1N(Cc1ccccc1)[S+](=O)([O-])c1c(Cl)cc(Br)cc1Cl [DDD85601],>1
18,"Cc1nn(C)c(C)c1N[S+](=O)([O-])c1c(Cl)cc(-c2cccc(CN3CCCC3)c2)cc1Cl [DDD88009, 3,5-Dichloro-3′-pyrrolidin-1-ylmethyl-biphenyl-4-sulfonic acid (1,3,5-trimethyl-1H-pyrazol-4-yl)-amide]",0.10
19,"Cc1nn(C)c(C)c1N[S+](=O)([O-])c1c(Cl)cc(C#CCN2CCN(C)CC2)cc1Cl [DDD86469, 2,6-Dichloro-4-[3-(4-methyl-piperazin-1-yl)-prop-1-ynyl]-N-(1,3,5-trimethyl-1H-pyrazol-4-yl)-benzenesulfonamide]",0.55
